From patent US6057351A, “Compounds of the 3-aryl 2,4 dioxo oxazolidine family and use thereof in cosmetic and pharmaceuticals” (Societe L'Oreal S.A., priority 1996, dated 2000)

Legend:
androgen receiver = biological target: T1, androgen receiver (Rattus norvegicus, UniProt P15207); experiment: Affinity for the androgen receiver (Schilling and Liao method), inhibition of testosterone fixation; format: binding
T1 sequence (P15207 1-902): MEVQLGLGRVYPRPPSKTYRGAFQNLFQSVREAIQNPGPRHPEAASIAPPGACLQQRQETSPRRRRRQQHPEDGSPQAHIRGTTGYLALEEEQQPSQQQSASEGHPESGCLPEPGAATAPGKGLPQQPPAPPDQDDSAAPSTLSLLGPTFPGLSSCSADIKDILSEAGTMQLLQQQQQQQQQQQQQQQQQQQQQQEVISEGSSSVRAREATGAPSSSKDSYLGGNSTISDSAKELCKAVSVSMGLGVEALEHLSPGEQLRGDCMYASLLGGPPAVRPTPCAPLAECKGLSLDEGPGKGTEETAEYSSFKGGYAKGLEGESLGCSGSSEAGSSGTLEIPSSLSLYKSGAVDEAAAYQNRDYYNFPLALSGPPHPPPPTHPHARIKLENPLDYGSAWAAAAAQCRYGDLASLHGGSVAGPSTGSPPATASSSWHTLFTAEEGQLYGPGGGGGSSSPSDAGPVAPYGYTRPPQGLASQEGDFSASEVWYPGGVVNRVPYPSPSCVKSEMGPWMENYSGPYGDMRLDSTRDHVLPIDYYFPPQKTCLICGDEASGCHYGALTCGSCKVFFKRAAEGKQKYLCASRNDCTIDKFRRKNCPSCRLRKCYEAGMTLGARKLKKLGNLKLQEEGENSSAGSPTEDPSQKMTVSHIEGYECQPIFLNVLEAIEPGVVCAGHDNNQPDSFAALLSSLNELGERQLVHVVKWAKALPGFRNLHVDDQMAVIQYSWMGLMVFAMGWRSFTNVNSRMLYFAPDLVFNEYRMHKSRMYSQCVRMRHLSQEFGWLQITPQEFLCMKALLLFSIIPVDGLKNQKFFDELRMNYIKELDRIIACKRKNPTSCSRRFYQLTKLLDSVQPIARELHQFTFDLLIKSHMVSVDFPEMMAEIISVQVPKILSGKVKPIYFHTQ
Procedure: Measuring the affinity of the 4-(5-methyl-2,4-dioxo-5-trifluoromethyl)-oxazolidin-3-yp)-2-trifluoromethylbenzonitrile for the androgen receiver.
These measurements of receiving affinity for the androgen receiver are executed according to the Schilling and Liao method, described in "The Prostate", 1984, 5.p. 581-588.
The compound is tested at several concentrations. During the experiment, the reference molecule(mibolerone) is tested at the same time at 8 concentrations in order to validate the experiment.
The results are expressed in % of inhibition of the fixation of the testosterone on its receiver. The internal reference (mibolerone) inhibits up to 50% of this fixation at a concentration of 4.3 nM.

thoracic aorta rings = experiment: "Potassic canal opener" type activity: in vitro relaxing power on thoracic aorta rings contracted by KCl 20 mM; format: cell-based
Procedure: Measurement of the "potassic canal opener" type activity of the 4-(5-methyl-2,4-dioxo-5-trifluoromethyl)-oxazolidin-3-yl)-2-trifluoromethylbenzonitrile by measuring in vitro the relaxing power of the molecules of thoracic aorta rings.
The experiments are carried out according to the Newgreen et al (Br. J. Pharmacol., 100, 1990, p. 605-613), Bray et al (Arch. Pharmacol., 344, 1991, p. 351-359) and Wickerden et al (Br. J. Pharmacol., 103, 1991, 1148-1152) methods.
After placing the tissues in the isolated organ tanks, they (smooth aortic muscles) are subjected to an initial tension of 2 g.
After a period of equilibration, the tissues are exposed to a potassium chloride solution (KCl, at 20 mM) in order to obtain a sustained contractile response. After stabilization of this contractile response, the relaxing activity (of the potassic canal opener type) of the molecules to be tested is evaluated in response doses.
During the experiment, two reference molecules are used: cromakalim and Minoxidil.
Results expressed in % of inhibition of the contraction provoked by the KCl at 20 mM.

Row | SMILES | IC50 (androgen receiver) [nM] | % of inhibition of the contraction provoked by the KCl at 20 mM (thoracic aorta rings; compound at 0.1 μM) [%] | % of inhibition of the contraction provoked by the KCl at 20 mM (thoracic aorta rings; compound at 1 μM) [%] | % of inhibition of the contraction provoked by the KCl at 20 mM (thoracic aorta rings; compound at 10 μM) [%] | inhibition at 0.1 µM (androgen receiver; compound at 0.1 μM, read-out: % of inhibition of the fixation of the testosterone on its receiver) [%] | inhibition at 1 µM (androgen receiver; compound at 1 μM, read-out: % of inhibition of the fixation of the testosterone on its receiver) [%] | inhibition at 10 µM (androgen receiver; compound at 10 μM, read-out: % of inhibition of the fixation of the testosterone on its receiver) [%] | activity profile (potassic canal opener / anti-androgen) (thoracic aorta rings; conclusion drawn from the results of Examples 2 and 3)
1 | C[C@@H]1CC2=CC(=O)CC[C@@H]2[C@H]2CC[C@@]3(C)[C@@H](CC[C@]3(C)O)[C@@H]21 [mibolerone] | 4.3 |  |  |  |  |  |  | 
2 | Nc1cc(N2CCCCC2)nc(N)[n+]1[O-] [Minoxidil, 3-oxide pyrimidine 6-piperidino 2,4-diamino] |  | 25 | 65 | 95 |  |  |  | 
3 | CC1(C)Oc2ccc(C#N)cc2C(N2CCCC2=O)C1O (centres unmarked) [Cromakalim, cromakalim] |  | 46 | 86 | 100 |  |  |  | 
4 | CC1(C(F)(F)F)OC(=O)N(c2ccc(C#N)c(C(F)(F)F)c2)C1=O (centres unmarked) [4-(5-methyl-2,4-dioxo-5-trifluoromethyl)-oxazolidin-3-yl)-2-trifluoromethylbenzonitrile] |  | 12 | 69 | 95 | 2 | 17 | 56 | mixed activity, with a preferred activity for the K* Agonist facet
